What was measured:
[1] = test system: dermal fibroblast; test: Enhancing effect of incorporation of Arg oligomer using substance positively changing membrane curvature (Test Example 5); assay type: cell-based; conditions: Arg oligomer 1 μM, 10 minutes
Procedure: The enhancing effect of incorporation of an Arg oligomer was evaluated by using skin-related cells (dermal fibroblast). Dermal fibroblast (Fibrocell, produced by Kurabo Industries, Ltd.) was seeded on a 6-well plate in an amount of 3×10^4 (cell/well) and cultivated with D-MEM Culture Medium (Dulbecco's modified Eagle medium, containing 10% serum, penicillin: 50 U/mL, streptomycin: 50 μg/mL) for 2 days. After cultivating for 2 days, the culture medium was removed from the wells of the 6-well plate, and D-MEM Culture Medium adjusted to contain 1,3-butanediol in a concentration of 2.5, 5 or 10 mM was added. After incubating for 5 minutes (37° C., 5% CO2), an Arg oligomer was added to the respective plates to a concentration of 1 μM and incubated for 10 minutes. After 10 minutes, the culture medium was removed by suction, and the wells were rinsed twice with an isotonic phosphate buffer solution. 500 μL of 1% Triton X-100 was added to the respective wells, followed by shaking at room temperature under light shielding for 1 hour, to lyse the cells. After thoroughly stirring by pipetting, the contents of the respective cells were transferred by 200 μL to a 96-well black cell, and fluorescence of 535 nm was measured under excitation with a spectrophotofluorometer (microplate reader, Wallac 1420 ARVOsx) at 485 nm.

[2] = test system: dermal fibroblast; test: Suppressing effect of incorporation of Arg oligomer using substance negatively changing membrane curvature (Test Example 6); assay type: cell-based; conditions: Arg oligomer 1 μM, 10 minutes
Procedure: The suppressing effect of incorporation of an Arg oligomer was evaluated by using skin-related cells (dermal fibroblast). Dermal fibroblast (Fibrocell, produced by Kurabo Industries, Ltd.) was seeded on a 6-well plate in an amount of 3×10^4 (cell/well) and cultivated with D-MEM Culture Medium (Dulbecco's modified Eagle medium, containing 10% serum, penicillin: 50 U/mL, streptomycin: 50 μg/mL) for 2 days. After cultivating for 2 days, the culture medium was removed from the wells of the 6-well plate, and D-MEM Culture Medium adjusted to contain sucrose in a concentration of 2.5, 5 or 10 mM was added. After incubating for 5 minutes (37° C., 5% CO2), an Arg oligomer was added to the respective plates to a concentration of 1 μM and incubated for 10 minutes. After lapsing 10 minutes, the culture medium was removed by suction, and the contents of the wells were rinsed twice with an isotonic phosphate buffer solution. 500 μL of 1% Triton X-100 was added to the respective wells, followed by shaking at room temperature under light shielding for 1 hour, to lyse the cells. After thoroughly stirring by pipetting, the contents of the respective wells were transferred by 200 μL to a 96-well black cell, and fluorescence of 535 nm was measured under excitation with a spectrophotofluorometer (microplate reader, Wallac 1420 ARVOsx) at 485 nm. The addition of sucrose decreased the fluorescence intensity depending upon the concentration of sucrose by 8% with a sucrose concentration of 2.5 mM, 19% with 5 mM and 37% with 10 mM, in comparison to the case where no sucrose was added. According to the aforementioned experimentation, sucrose is a compound changing the membrane curvature to concave, and it is considered that the change of the membrane suppresses the membrane permeability of the Arg oligomer.

[3] = Phase change of cubic phase of lecithin/sodium cholate system on adding sucrose; assay type: physicochemical; conditions: cubic phase of 22.5% water, 50.4% phosphatidylcholine, 27.1% sodium cholate by weight at 25° C
From the text: The suppressing effect of incorporation of an Arg oligomer was investigated upon adding sucrose as a permeation suppressing substance, which was disclosed as a substance negatively changing the membrane curvature in Biochimica et Biophysica Acta (BBA)—Biomembranes, vol. 1285, Issue 1, p. 109-122 (1996). The inventors confirmed that a cubic phase of lecithin/sodium cholate system was constituted by utilizing lecithin (phosphatidylcholine) as a major constitutional component of the phospholipid constituting a cell membrane, and the cubic phase was changed to a hexagonal phase by adding sucrose thereto (as described in Biochim. Biophys. Acta., vol. 125, p. 563-580 (1966)). The phase change was determined by a change of the shape observed by a polarization microscope, the presence or absence of polarization with a polarizing film (a lamellar phase and a hexagonal phase were viewed brightly owing to the polarization thereof, but a cubic phase is viewed darkly), or a difference in spectrum patterns obtained by small angle X-ray scattering. The cubic phase was formed by mixing 22.5% by weight of water, 50.4% by weight of phosphatidylcholine and 27.1% by weight of sodium cholate at 25° C. When sucrose was added to the cubic phase in a proportion of 3.5% by weight or more, the cubic phase was changed to a lamellar phase. […]

[4] = test system: erythrocytes; test: Influence of osmotic pressure on membrane permeation of Tat Peptide (48-60) into erythrocyte (Test Example 4); assay type: cell-based, sheep; conditions: 10 μM, 37° C, 10 minutes; hypotonic versus isotonic phosphate buffer solution
Procedure: 5 mL of preserved sheep blood (available from Japan Biomaterial Center Co., Ltd.) was placed in a tube, and after subjecting to centrifugal separation (4° C., 3,000 g, 3 min), the supernatant fluid was removed. 5 mL of physiological saline was added thereto, followed by lightly stirring, and then subjected to centrifugal separation (4° C., 3,000 g, 3 min). The same operation was repeated to obtain an erythrocyte pellet. 400 μL of an isotonic phosphate buffer solution was added to 400 μL of the erythrocyte pellet, and after stirring, the mixture was subjected to centrifugal separation (4° C., 3,000 g, 3 min), followed by removing the supernatant fluid. The same operation was repeated to obtain an erythrocyte pellet for evaluation. […] The solution in the Coulter Counter® is replaced by a hypotonic phosphate buffer solution (70% hypotonicity), and the diameter of the erythrocytes floating in the hypotonic phosphate buffer solution was measured in the same manner as in the case of the isotonic phosphate buffer solution. The diameter of the erythrocytes in a hypertonic phosphate buffer solution (130% hypertonicity) was also measured in the same manner. […]
An erythrocyte pellet for evaluation was prepared in the same manner as in Test Example 1. […] The supernatant fluid was measured for fluorescence intensity with a microplate reader or a spectrophotofluorometer. […]

With `CC(O)CCO` (centres unmarked) [1,3-butanediol] the “increase of fluorescence intensity (Arg oligomer incorporation) versus no addition” value ([1]; 2.5 mM of added substance) was “about 15%”.
For `N#C[S-].[Na+]` [sodium thiocyanate], the “increase of fluorescence intensity (Arg oligomer incorporation) versus no addition” value ([1]; 2.5 mM of added substance) was “about 10%” and the “increase of fluorescence intensity (Arg oligomer incorporation) versus no addition” value ([1]; 10 mM of added substance) was “about 15%”.
In the case of `OC[C@H]1O[C@@](CO)(O[C@H]2O[C@H](CO)[C@@H](O)[C@H](O)[C@H]2O)[C@@H](O)[C@@H]1O` [sucrose], the “decrease of fluorescence intensity (Arg oligomer incorporation) versus no sucrose” value ([2]; sucrose 2.5 mM) is reported as 8%, the “decrease of fluorescence intensity (Arg oligomer incorporation) versus no sucrose” value ([2]; sucrose 5 mM) is reported as 19% and the “decrease of fluorescence intensity (Arg oligomer incorporation) versus no sucrose” value ([2]; sucrose 10 mM) is reported as 37%. The “proportion added at which the cubic phase was changed to a lamellar phase” value [3] was no less than 3.5 % by weight.
With “rhodamine-GABA-GRKKRRQRRRPPQC-NH2.8CF3COOH [Tat Peptide]” the “amount of the Tat Peptide which penetrated into the erythrocytes on lowering the osmotic pressure, by fluorescence intensity” value [4] was “increased”.

— patent publication US20050118204A1, “Methods for controlling membrane permeability of a membrane permeable substance and screening methods for a membrane permeable substance” (priority 2003, published 2005)
